From patent US10398659B2, “Adjuvant chemotherapy for anaplastic gliomas” (OKLAHOMA MEDICAL RESEARCH FOUNDATION, priority 2008, dated 2019)
Counter-ions that a name gives are not always drawn.

Legend:
[1] = tested on: iNOS; assay: iNOS protein expression in C6 cells; type: cell-based, rat; conditions: 100 μM
Excerpt: (§1) The inventors then examined iNOS and VEGF protein expressions in the 2,4-ds-PBN treated C6 cells.

[2] = in vivo; cited from earlier work
[3] = tested on: C6 cells; assay: cell proliferation; type: cell-based, rat; conditions: concentration dependence
[4] = tested on: pro-caspase 3 and pro-caspase 9; assay: Western blots of apoptotic factors in C6 cells; type: cell-based, rat; conditions: increasing concentrations
Experimental: FIG. 6: Western blots of rat C6 cells with increasing concentrations of 2,4-ds-PBN. Increasing levels of apoptotic factors pro-caspase 3 and pro-caspase 9 are shown, relative to actin.
(§2) FIG. 4 represents a series of MR images taken over a period of 25 days for an untreated control group and representative data (best-case, average effect, and worst-case) for 2,4-ds-PBN-treated rats (via drinking water administration at a dose of 17 mg/kg/day). […] Rats treated with 2,4-ds-PBN achieved >80% survival over the 40 day study period (n=15), compared to non-treated rats (n=5). […] Gross signs of adverse effects that were monitored included weight loss, ruffling of fur, and behavioural and postural changes.

[5] = tested on: VEGF; assay: VEGF protein expression in C6 cells; type: cell-based, rat; conditions: 5 mM
Excerpt: as §1

[6] = tested on: C6 glioma; assay: intracerebral C6 rat glioma cell implantation model, MR imaging; type: in vivo
Experimental: The inventors used an intracerebral C6 rat glioma cell implantation method, widely accepted by the glioma research field, as a good model for gliomas. To induce glioma in rats, C6 rat glioma cells (10^6 cells in 10 μL were injected into the cerebral cortex of male Fischer 344 rats. Fifteen days later, 2,4-ds-PBN was orally administered through drinking water (0.015%, 17.5 mg/kg). The efficacy of 2,4-ds-PBN was assessed with the tumor growth patterns and growth rates by using magnetic resonance (MR) imaging (T1/T2-weighted imaging) methods over the course of a month.
as §2

[7] = monitoring of adverse effects and toxicity in treated glioma rats; type: in vivo
Excerpt: . n=15 for 2,4-ds-PBN-treated rats, and n=5 for non-treated rats) in 2,4-ds-PBN-treated rats (see FIG. 5). Rats treated with 2,4-ds-PBN achieved >80% survival over the 40 day study period (n=15), compared to non-treated rats (n=5). […] Gross signs of adverse effects that were monitored included weight loss, ruffling of fur, and behavioural and postural changes.

[8] = solubility in water; type: physicochemical; conditions: free acid
Excerpt: The product so formed is the free acid and is characterized by a molecular weight of […]. It is a white powdery material which decomposes upon heating. […]; 8.836 ppm (d, 8.4 Hz); 8.839 ppm (d, 1.7 Hz); 8.774 ppm (s).

[9] = tested on: C6 gliomas; conditions: cited from earlier work
[10] = rats; cited from earlier work

CC(C)(C)[N+]([O-])=Cc1ccc(S(=O)(=O)O)cc1S(=O)(=O)O [2,4-ds-PBN, 2,4-disulfonyl phenyl tert-butyl nitrone]
iNOS expression decrease [1]: approximately 75%
blood-brain-barrier penetration [2]: cannot easily pass through the BBB
inhibition of cell proliferation [3]: little effect
apoptotic effect (pro-caspase 3, pro-caspase 9 levels relative to actin) [4]: pro-apoptotic as concentration increases
VEGF expression reduction [5]: 50%
C6 glioma tumor volumes decrease ([6]; 17 mg/kg/day via drinking water from day 15 after cell implantation, vs non-treated rats, n=15 vs n=5): > 15 fold
survival over the 40 day study period ([6]; 2,4-ds-PBN in drinking water, n=15, compared to non-treated rats (n=5)): > 80%
toxicity effects ([7]; rat, in vivo): No toxicity effects were detected
side effects during the treatment period ([7]; weight loss, ruffling of fur, behavioural and postural changes monitored): No side effects were observed
solubility [8]: > 1000 mg/mL

O=NN(CCCl)C(=O)NC1CCCCC1 [Lomustine, 1-(2-chloroethyl)-3-cyclohexyl-1-nitrosourea]
blood-brain-barrier penetration [2]: crosses the blood brain barrier

CC(C)(C)[N+]([O-])=Cc1ccccc1 [PBN, phenyl N-tert-butyl nitrone]
iNOS expression decrease [1]: 5%
blood-brain-barrier penetration [2]: easily penetrate the BBB
effect on tumor growth, pretreatment ([9]; PBN administration as a pretreatment, rat C6 glioma): decrease in growth rate and tumor regression
effect on tumor regression, post-treatment ([9]; post-treatment of PBN, compared with pre-treatment): little effect for tumor regression
inhibition of cell proliferation [3]: significantly inhibited cell proliferation in a concentration dependent manner
half-life [10]: about 132 minutes

CC(C)(C)/[N+]([O-])=C/c1ccccc1S(=O)(=O)O [S-PBN]
inhibition of cell proliferation [3]: little effect

CC[C@]1(O)C[C@H]2CN(CCc3c([nH]c4ccccc34)[C@@](C(=O)OC)(c3cc4c(cc3OC)N(C=O)[C@H]3[C@@](O)(C(=O)OC)[C@H](OC(C)=O)[C@]5(CC)C=CCN6CC[C@]43[C@@H]65)C2)C1 [Vincristine, vincaleukoblastine, a 22-oxo-, sulfate (1:1) (salt)]
blood-brain-barrier penetration [2]: does not appear to cross the blood brain barrier
